Measurements published in patent US11198713B2, “Agents modulating beta-catenin functions and methods thereof” (FOG PHARMACEUTICALS, INC., priority 2017, dated 2021).
Numbered stars: 1 amine (or outer) side, 2 acyl side, 3 side chain; on linkers, the order of the positions; unused ones are H or OH. Bridge positions count the residues as written; N and C are the ends. Square brackets hold non-standard residues; d marks the D form. Peptide text beside a SMILES is read from it. X11 = CN(CC=[*:3])C[C@](C)(N[*:1])C(=O)[*:2]; X5 = C[C@](CCCCCC=[*:3])(N[*:1])C(=O)[*:2]

Each molecule was assayed against T1, full-length beta-catenin (Axin site) (Homo sapiens, UniProt P35222) (assay: Competition fluorescence polarization assay (Axin site probe)). Conditions: competition fluorescence polarization, Table 2; read-out: in vitro FP EC50.
T1 construct: 15 nM full-length beta-catenin, 20 nM FITC labeled peptide in buffer
T1 sequence (P35222 1-781): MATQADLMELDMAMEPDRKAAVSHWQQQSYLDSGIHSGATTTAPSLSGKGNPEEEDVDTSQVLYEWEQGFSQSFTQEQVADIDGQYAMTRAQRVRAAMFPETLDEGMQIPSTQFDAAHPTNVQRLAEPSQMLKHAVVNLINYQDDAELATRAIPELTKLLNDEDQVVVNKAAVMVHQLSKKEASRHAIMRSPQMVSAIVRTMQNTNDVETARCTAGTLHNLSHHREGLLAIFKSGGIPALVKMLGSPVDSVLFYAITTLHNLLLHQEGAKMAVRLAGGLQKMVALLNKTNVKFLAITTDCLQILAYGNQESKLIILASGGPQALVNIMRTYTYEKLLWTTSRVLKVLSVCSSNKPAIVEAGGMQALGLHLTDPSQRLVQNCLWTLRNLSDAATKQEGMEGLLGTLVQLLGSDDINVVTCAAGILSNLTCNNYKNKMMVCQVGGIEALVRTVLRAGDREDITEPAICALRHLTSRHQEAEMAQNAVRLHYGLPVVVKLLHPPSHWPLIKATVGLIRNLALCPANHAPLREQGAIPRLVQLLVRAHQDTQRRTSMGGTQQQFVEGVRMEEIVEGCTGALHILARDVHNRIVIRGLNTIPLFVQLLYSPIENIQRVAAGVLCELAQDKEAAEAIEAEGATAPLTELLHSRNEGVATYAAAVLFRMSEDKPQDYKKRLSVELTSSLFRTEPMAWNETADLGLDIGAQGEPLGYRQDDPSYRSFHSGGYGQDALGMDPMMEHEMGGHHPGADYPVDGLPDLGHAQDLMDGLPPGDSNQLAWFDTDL
Format: binding
Protocol: FIG. 1. […] Peptide solutions were prepared in buffer (50 mM Tris pH 8.0, 250 mM NaCl, 2% glycerol, 0.5 mM EDTA, 0.02% w/v sodium azide) using a 3-fold serial dilution from 5 μM. Probe solution (15 nM full-length 13-Catenin, 20 nM FITC labeled peptide (FITC-PEG1-PQ-S5-ILD-S5-HVRRVWR (SEQ ID NO: 1) (hydrocarbon staple formed by two S5 via olefin metathesis)) in buffer) was prepared and incubated for 5 minutes, then 40 μL per well plated in a black polystyrene 384-well plate (Corning). Equal volume of the titrated peptide was added to the plate and incubated protected from light for 15 minutes prior to read. Reads were performed on a Spectramax M5 (Molecular Devices) in duplicate.
FIG. 7. […] BCL9 Competition FP assay: Peptide solutions were prepared in buffer (50 mM Tris pH 8.0, 250 mM NaCl, 2% glycerol, 0.5 mM EDTA, 0.02% w/v sodium azide) using a 3-fold serial dilution from 10 μM. Probe solution (250 nM full-length beta-catenin, 20 nM 5FAM labeled peptide in buffer) was prepared and 40 μL per well plated in a black polystyrene 384-well plate (Corning). Equal volume of the titrated peptide was added to the plate and incubated protected from light for 15 minutes prior to read. Reads were performed on a Spectramax M5 (Molecular Devices) in duplicate. Probe: Ac-[…]nLeu-Leu-2NapA-bala-bala-Lys5FAM-NH2 (SEQ ID NO: 2) (from Biochemistry, 2009, 48 (40), pp 9534-9541). Axin Competition FP assay: Peptide solutions were prepared in buffer (50 mM Tris pH 8.0, 250 mM NaCl, 2% glycerol, 0.5 mM EDTA, 0.02% w/v sodium azide) using a 3-fold serial dilution from 5 μM. Probe solution (15 nM full-length beta-catenin, 20 nM FITC labeled peptide in buffer) was prepared and incubated for 5 minutes, then 40 μL per well plated in a black polystyrene 384-well plate (Corning). Equal volume of the titrated peptide was added to the plate and incubated protected from light for 15 minutes prior to read. Reads were performed on a Spectramax M5 (Molecular Devices) in duplicate. Probe: FITC-StAx-33 from Grossmann et al. PNAS 109 17942-17947.
An EC50 of 0.1 to 0.5 µM was found for `CC[C@H](C)[C@@H]1NC(=O)[C@H](Cc2c[nH]cn2)NC(=O)[C@H](C)NC(=O)[C@H](CC(=O)O)NC(=O)[C@H](CC(C)C)NC(=O)[C@H]([C@@H](C)CC)NC(=O)[C@](C)(NC(=O)[C@H](C)NC(C)=O)CCCCCCC=CCOC(=O)N2CC[C@@](C(=O)N[C@@H](Cc3cccc4ccccc34)C(=O)N[C@H](C(=O)N[C@@H](Cc3c[nH]c4ccccc34)C(N)=O)C(C)C)(C2)NC1=O` (single isomer, unassigned) [FP0365c, Ac-A-R8-I-L-D-A-H-I-MB-1NapA-V-W-NH2] in this work. An EC50 of over 5 µM was found for `CC[C@H](C)[C@@H]1NC(=O)[C@H](Cc2ccccn2)NC(=O)[C@H](C)NC(=O)[C@H](CC(=O)O)NC(=O)[C@H](CC(C)C)NC(=O)[C@H]([C@@H](C)CC)NC(=O)[C@](C)(NC(=O)[C@H](C)NC(C)=O)CCCCCCC=CCOC(=O)N2CC[C@@](C(=O)N[C@H](C(=O)N[C@H](C(=O)N[C@@H](Cc3c[nH]c4ccccc34)C(N)=O)C(C)C)[C@@H](C)O)(C2)NC1=O` (single isomer, unassigned) [FP0561c Isomer 2, Ac-A-R8-I-L-D-A-2pyr-I-MB-T-V-W-NH2] in this work. An EC50 of 0.1 to 0.5 µM was found for `CC[C@H](C)[C@@H]1NC(=O)[C@H](Cc2c[nH]cn2)NC(=O)[C@H](C)NC(=O)[C@H](CC(=O)O)NC(=O)[C@H](CC(C)C)NC(=O)[C@H]([C@@H](C)CC)NC(=O)[C@](C)(NC(=O)[C@H](C)NC(C)=O)CCCCCC=CCOC(=O)N2CC(C(=O)N[C@@H](CCCNC(=N)N)C(=O)N[C@H](C(=O)N[C@@H](Cc3c[nH]c4ccccc34)C(N)=O)C(C)C)(C2)NC1=O` [FP0516c, Ac-A-R7-I-L-D-A-H-I-MA-R-V-W-NH2] in this work. An EC50 of 0.5 to 5 µM was found for `CC[C@H](C)[C@@H]1NC(=O)[C@H](Cc2c[nH]cn2)NC(=O)[C@H](C)NC(=O)[C@H](CC(=O)O)NC(=O)[C@H](CC(C)C)NC(=O)[C@H]([C@@H](C)CC)NC(=O)[C@](C)(NC(=O)[C@H](C)NC(C)=O)CCCCCC=CCN(C)C[C@@](C)(C(=O)N[C@@H](CCCNC(=N)N)C(=O)N[C@H](C(=O)N[C@@H](Cc2c[nH]c3ccccc23)C(N)=O)C(C)C)NC1=O` [FP0495a, Ac-A-R7-I-L-D-A-H-I-MD-R-V-W-NH2] (Ac-A[X5]ILDAHI[X11]RVW-NH2; staple 2-9) in this work. An EC50 of over 5 µM was found for `CC[C@H](C)[C@@H]1NC(=O)[C@H](Cc2ccccn2)NC(=O)[C@H](C)NC(=O)[C@H](CC(=O)O)NC(=O)[C@H](CC(C)C)NC(=O)[C@H]([C@@H](C)CC)NC(=O)[C@](C)(NC(=O)[C@H](C)NC(C)=O)CCCCCCC=CCOC(=O)N2CC[C@@](C(=O)N[C@H](C(=O)N[C@H](C(=O)N[C@@H](Cc3c[nH]c4ccccc34)C(N)=O)C(C)C)[C@@H](C)O)(C2)NC1=O` (single isomer, unassigned) [FP0561c Isomer 1, Ac-A-R8-I-L-D-A-2pyr-I-MB-T-V-W-NH2] in this work. An EC50 of over 5 µM was found for `CC[C@H](C)[C@@H]1NC(=O)[C@]2(NC(=O)[C@H](CCC(N)=O)NC(=O)[C@@H]3CCCN3C(C)=O)CCN(CC=CCCC[C@@](C)(C(=O)N[C@@H](Cc3c[nH]cn3)C(=O)N[C@H](C(=O)N[C@@H](CCCNC(=N)N)C(=O)N[C@@H](CCCNC(=N)N)C(=O)N[C@H](C(=O)N[C@@H](Cc3c[nH]c4ccccc34)C(=O)N[C@@H](CCCNC(=N)N)C(N)=O)C(C)C)C(C)C)NC(=O)[C@H](CC(=O)O)NC(=O)[C@H](CC(C)C)NC1=O)C2` (single isomer, unassigned) [FP0751a, Ac-P-Q-MB-I-L-D-S5-H-V-R-R-V-W-R-NH2] in this work. An EC50 of over 5 µM was found for `CC[C@H](C)[C@@H]1NC(=O)[C@H](Cc2ccccn2)NC(=O)[C@H](C)NC(=O)[C@H](CC(=O)O)NC(=O)[C@H](CC(C)C)NC(=O)[C@H]([C@@H](C)CC)NC(=O)[C@](C)(NC(=O)[C@H](C)NC(C)=O)CCCCCCC=CCOC(=O)N2CC[C@@](C(=O)N[C@H](C(=O)N[C@H](C(=O)N[C@@H](Cc3c[nH]c4ccccc34)C(N)=O)C(C)C)C(C)(C)C)(C2)NC1=O` (single isomer, unassigned) [FP0568c Isomer 2, Ac-A-R8-I-L-D-A-2pyr-I-MB-tLeu-V-W-NH2] in this work. An EC50 of 0.5 to 5 µM was found for `CC[C@H](C)[C@@H]1NC(=O)[C@H](Cc2c[nH]cn2)NC(=O)[C@H](C)NC(=O)[C@H](CC(=O)O)NC(=O)[C@H](CC(C)C)NC(=O)[C@H]([C@@H](C)CC)NC(=O)[C@](C)(NC(=O)[C@H](C)NC(C)=O)CCCCCCC=CCOC(=O)N2CC[C@@](C(=O)N[C@@H](CCCNC(=N)N)C(=O)N[C@@](C)(CC(C)C)C(=O)N[C@@H](Cc3c[nH]c4ccccc34)C(N)=O)(C2)NC1=O` [FP0633c, Ac-A-R8-I-L-D-A-H-I-MB-R-aMeL-W-NH2] in this work. An EC50 of over 5 µM was found for `CC[C@H](C)[C@@H]1NC(=O)[C@H](Cc2ccccn2)NC(=O)[C@H](C)NC(=O)[C@H](CC(=O)O)NC(=O)[C@H](CC(C)C)NC(=O)[C@H]([C@@H](C)CC)NC(=O)[C@](C)(NC(=O)[C@H](C)NC(C)=O)CCCCCCC=CCOC(=O)N2CC[C@@](C(=O)N[C@@H](Cc3ccco3)C(=O)N[C@H](C(=O)N[C@@H](Cc3c[nH]c4ccccc34)C(N)=O)C(C)C)(C2)NC1=O` (single isomer, unassigned) [FP0569c Isomer 2, Ac-A-R8-I-L-D-A-2pyr-I-MB-fur-V-W-NH2] in this work. An EC50 of over 5 µM was found for `CC[C@H](C)[C@@H]1NC(=O)[C@H](Cc2ccccn2)NC(=O)[C@H](C)NC(=O)[C@H](CC(=O)O)NC(=O)[C@H](CC(C)C)NC(=O)[C@H]([C@@H](C)CC)NC(=O)[C@](C)(NC(=O)[C@H](C)NC(C)=O)CCCCCCC=CCOC(=O)N2CC[C@@](C(=O)N[C@@H](CO)C(=O)N[C@H](C(=O)N[C@@H](Cc3c[nH]c4ccccc34)C(N)=O)C(C)C)(C2)NC1=O` (single isomer, unassigned) [FP0560c Isomer 1, Ac-A-R8-I-L-D-A-2pyr-I-MB-S-V-W-NH2] in this work. An EC50 of 0.5 to 5 µM was found for `CC[C@H](C)[C@@H]1NC(=O)[C@](C)(NC(=O)[C@H](CCC(N)=O)NC(=O)[C@@H]2CCCN2C(C)=O)CCCC=CCOC(=O)N(C)CC[C@](C)(C(=O)N[C@@H](Cc2c[nH]cn2)C(=O)N[C@H](C(=O)N[C@@H](CCCNC(=N)N)C(=O)N[C@@H](CCCNC(=N)N)C(=O)N[C@H](C(=O)N[C@@H](Cc2c[nH]c3ccccc23)C(=O)N[C@@H](CCCNC(=N)N)C(N)=O)C(C)C)C(C)C)NC(=O)[C@H](CC(=O)O)NC(=O)[C@H](CC(C)C)NC1=O` (single isomer, unassigned) [FP0776c, Ac-P-Q-R5-I-L-D-MG-H-V-R-R-V-W-R-NH2] in this work. An EC50 of under 0.1 µM was found for `CC[C@H](C)[C@@H]1NC(=O)[C@H](Cc2c[nH]cn2)NC(=O)[C@H](C)NC(=O)[C@H](CC(=O)O)NC(=O)[C@H](CC(C)C)NC(=O)[C@H]([C@@H](C)CC)NC(=O)[C@](C)(NC(=O)[C@H](C)NC(C)=O)CCCCCCC=CCOC(=O)N2CC[C@@](C(=O)N[C@@H](CCCNC(=NC)NC)C(=O)N[C@H](C(=O)N[C@@H](Cc3c[nH]c4ccccc34)C(N)=O)C(C)C)(C2)NC1=O` [FP0640c, Ac-A-R8-I-L-D-A-H-I-MB-SDMA-V-W-NH2] in this work. An EC50 of over 5 µM was found for `CC[C@H](C)[C@@H]1NC(=O)[C@H](Cc2ccccn2)NC(=O)[C@H](C)NC(=O)[C@H](CC(=O)O)NC(=O)[C@H](CC(C)C)NC(=O)[C@H]([C@@H](C)CC)NC(=O)[C@](C)(NC(=O)[C@H](C)NC(C)=O)CCCCCCC=CCOC(=O)N2CC[C@@](C(=O)N[C@@H](CC3CCC3)C(=O)N[C@H](C(=O)N[C@@H](Cc3c[nH]c4ccccc34)C(N)=O)C(C)C)(C2)NC1=O` (single isomer, unassigned) [FP0565c Isomer 2, Ac-A-R8-I-L-D-A-2pyr-I-MB-Cba-V-W-NH2] in this work.
